Reference: ChEMBL document CHEMBL3785005, “Novel triazole hybrids of myrrhanone C, a natural polypodane triterpene: Synthesis, cytotoxic activity and cell based studies” (Eur J Med Chem, 2016)
Calls of active or inactive are those of the source. The rule behind the calls is not given here.

Legend:
[1] = system: A549; assay: Cell cycle arrest in human A549 cells assessed as accumulation at sub G1 phase at 5 uM after 48 hrs by propidium iodide staining based flow cytometry (reference value: 0.76%); format: functional
[2] = system: A549; assay: Induction of apoptosis in human A549 cells assessed as nuclear fragmentation at 5 to 10 uM after 48 hrs by Hoechst 33258 staining based fluorescence microscopic analysis; format: functional, cell-based
[3] = system: A549; assay: Cell cycle arrest in human A549 cells assessed as accumulation at G2/M phase at 10 uM after 48 hrs by propidium iodide staining based flow cytometry (reference value: 14.07%); format: functional
[4] = system: MCF7; assay: Cytotoxicity against human MCF7 cells assessed as cell viability after 48 hrs by MTT assay; format: functional, cell-based; conditions: MCF7, 48 h
[5] = system: A549; assay: Cell cycle arrest in human A549 cells assessed as accumulation at sub G1 phase at 10 uM after 48 hrs by propidium iodide staining based flow cytometry (reference value: 0.76%); format: functional
[6] = Cytotoxicity against human DU145 cells assessed as cell viability after 48 hrs by MTT assay; format: functional, cell-based; conditions: DU-145, 48 h
[7] = system: A549; assay: Induction of apoptosis in human A549 cells assessed as viable cells at 5 uM after 48 hrs by Annexin V-FITC/propidium iodide staining based flow cytometry (reference value: 87.93%); format: functional; conditions: A549, 48 h, read-out: Activity
[8] = system: A549; assay: Induction of apoptosis in human A549 cells assessed as cytoplasmic condensation at 5 to 10 uM after 48 hrs by Hoechst 33258 staining based fluorescence microscopic analysis; format: functional, cell-based
[9] = system: HeLa; assay: Cytotoxicity against human HeLa cells assessed as cell viability after 48 hrs by MTT assay; format: functional, cell-based
[10] = system: A549; assay: Induction of apoptosis in human A549 cells assessed as presence of apoptotic bodies at 5 to 10 uM after 48 hrs by Hoechst 33258 staining based fluorescence microscopic analysis; format: functional, cell-based
[11] = system: A549; assay: Induction of apoptosis in human A549 cells assessed as necrotic cells at 10 uM after 48 hrs by Annexin V-FITC/propidium iodide staining based flow cytometry (reference value: 1.68%); format: functional
[12] = system: A549; assay: Induction of apoptosis in human A549 cells assessed as late apoptotic cells at 5 uM after 48 hrs by Annexin V-FITC/propidium iodide staining based flow cytometry (reference value: 5.19%); format: functional
[13] = system: A549; assay: Induction of apoptosis in human A549 cells assessed as late apoptotic cells at 10 uM after 48 hrs by Annexin V-FITC/propidium iodide staining based flow cytometry (reference value: 5.19%); format: functional
[14] = system: A549; assay: Cell cycle arrest in human A549 cells assessed as accumulation at S phase at 10 uM after 48 hrs by propidium iodide staining based flow cytometry (reference value: 3.51%); format: functional
[15] = system: A549; assay: Induction of apoptosis in human A549 cells assessed as viable cells at 10 uM after 48 hrs by Annexin V-FITC/propidium iodide staining based flow cytometry (reference value: 87.93%); format: functional; conditions: A549, 48 h, read-out: Activity
[16] = system: A549; assay: Cell cycle arrest in human A549 cells assessed as accumulation at G2/M phase at 5 uM after 48 hrs by propidium iodide staining based flow cytometry (reference value: 14.07%); format: functional
[17] = system: A549; assay: Cell cycle arrest in human A549 cells assessed as accumulation at S phase at 5 uM after 48 hrs by propidium iodide staining based flow cytometry (reference value: 3.51%); format: functional
[18] = system: A549; assay: Cell cycle arrest in human A549 cells assessed as accumulation at G0/G1 phase at 5 uM after 48 hrs by propidium iodide staining based flow cytometry (reference value: 80.19%); format: functional
[19] = system: A549; assay: Induction of apoptosis in human A549 cells assessed as early apoptotic cells at 5 uM after 48 hrs by Annexin V-FITC/propidium iodide staining based flow cytometry (reference value: 5.19%); format: functional
[20] = system: A549; assay: Induction of apoptosis in human A549 cells assessed as mitochondrial membrane potential at 10 uM after 48 hrs by JC-1 staining based flow cytometry (reference value: 92.5%); format: functional
[21] = system: A549; assay: Induction of apoptosis in human A549 cells assessed as early apoptotic cells at 10 uM after 48 hrs by Annexin V-FITC/propidium iodide staining based flow cytometry (reference value: 5.19%); format: functional
[22] = system: A549; assay: Cell cycle arrest in human A549 cells assessed as accumulation at G0/G1 phase at 10 uM after 48 hrs by propidium iodide staining based flow cytometry (reference value: 80.19%); format: functional
[23] = system: HepG2; assay: Cytotoxicity against human HepG2 cells assessed as cell viability after 48 hrs by MTT assay; format: functional, cell-based; conditions: HepG2, 48 h
[24] = system: A549; assay: Induction of apoptosis in human A549 cells assessed as mitochondrial membrane potential at 5 uM after 48 hrs by JC-1 staining based flow cytometry (reference value: 92.5%); format: functional
[25] = system: A549; assay: Induction of apoptosis in human A549 cells assessed as necrotic cells at 5 uM after 48 hrs by Annexin V-FITC/propidium iodide staining based flow cytometry (reference value: 1.68%); format: functional
[26] = system: A549; assay: Cytotoxicity against human A549 cells assessed as cell viability after 48 hrs by MTT assay; format: functional, cell-based; conditions: A549, 48 h

Row | Structure (SMILES) | Activity [1] | Activity [2] | Activity [3] | IC50 [4] | Activity [5] | IC50 [6] | viability at 5 µM [7] | Activity [8] | IC50 [9] | Activity [10] | Activity [11] | Activity [12] | Activity [13] | Activity [14] | viability at 10 µM [15] | Activity [16] | Activity [17] | Activity [18] | Activity [19] | Activity [20] | also measured
1 | COc1cc(OC)c(-n2cc(CO/N=C3\CC[C@]4(C)[C@@H](CC/C=C(\C)CC/C=C(\C)CCC=C(C)C)[C@](C)(O)CC[C@H]4C3(C)C)nn2)c(OC)c1 | 0.73% | Active | 31.32% | 14.7 µM | 1.14% | 11.1 µM | 86% | Active | 12.8 µM | Active | 1.8% | 8.56% | 15.83% | 0.36% | 77.4% | 18.52% | 3% | 76.47% | 4.18% | 84.1% | Activity [21]: 5%; Activity [22]: 65.77%; IC50 [23]: 14.1 µM; Activity [24]: 88.7%; Activity [25]: 1.3%; IC50 [26]: 8.12 µM
2 | CC(C)=CCC/C(C)=C/CC/C(C)=C/CC[C@@H]1[C@@]2(C)CC/C(=N\OCc3cn(-c4ccccc4)nn3)C(C)(C)[C@@H]2CC[C@@]1(C)O | 0.9% | Active | 36.97% | 9.59 µM | 1.02% | 8.83 µM | 84.4% | Active | 7.76 µM | Active | 1.43% | 9.59% | 16.28% | 0.34% | 76.9% | 20% | 2.86% | 75.14% | 5.23% | 83.5% | Activity [21]: 5.4%; Activity [22]: 60.11%; IC50 [23]: 9.52 µM; Activity [24]: 88.1%; Activity [25]: 0.81%; IC50 [26]: 6.16 µM
